Calls of active or inactive are those of the source. No rule for the calls is given here.
What follows are compounds tested against Tyrosine-protein kinase JAK2 (Homo sapiens) (UniProt O60674) (assay: NCGC Pharmaceutical Collection primary HTS, Janus kinase 2 (Homo sapiens) inhibitors, biochemical, LANCE Ultra TR-FRET (AID 1117354)). Details: LANCE Ultra TR-FRET kinase assay, at 20 µM (top of the series).
Tyrosine-protein kinase JAK2 (Homo sapiens), sequence (O60674 whole entry, looked up): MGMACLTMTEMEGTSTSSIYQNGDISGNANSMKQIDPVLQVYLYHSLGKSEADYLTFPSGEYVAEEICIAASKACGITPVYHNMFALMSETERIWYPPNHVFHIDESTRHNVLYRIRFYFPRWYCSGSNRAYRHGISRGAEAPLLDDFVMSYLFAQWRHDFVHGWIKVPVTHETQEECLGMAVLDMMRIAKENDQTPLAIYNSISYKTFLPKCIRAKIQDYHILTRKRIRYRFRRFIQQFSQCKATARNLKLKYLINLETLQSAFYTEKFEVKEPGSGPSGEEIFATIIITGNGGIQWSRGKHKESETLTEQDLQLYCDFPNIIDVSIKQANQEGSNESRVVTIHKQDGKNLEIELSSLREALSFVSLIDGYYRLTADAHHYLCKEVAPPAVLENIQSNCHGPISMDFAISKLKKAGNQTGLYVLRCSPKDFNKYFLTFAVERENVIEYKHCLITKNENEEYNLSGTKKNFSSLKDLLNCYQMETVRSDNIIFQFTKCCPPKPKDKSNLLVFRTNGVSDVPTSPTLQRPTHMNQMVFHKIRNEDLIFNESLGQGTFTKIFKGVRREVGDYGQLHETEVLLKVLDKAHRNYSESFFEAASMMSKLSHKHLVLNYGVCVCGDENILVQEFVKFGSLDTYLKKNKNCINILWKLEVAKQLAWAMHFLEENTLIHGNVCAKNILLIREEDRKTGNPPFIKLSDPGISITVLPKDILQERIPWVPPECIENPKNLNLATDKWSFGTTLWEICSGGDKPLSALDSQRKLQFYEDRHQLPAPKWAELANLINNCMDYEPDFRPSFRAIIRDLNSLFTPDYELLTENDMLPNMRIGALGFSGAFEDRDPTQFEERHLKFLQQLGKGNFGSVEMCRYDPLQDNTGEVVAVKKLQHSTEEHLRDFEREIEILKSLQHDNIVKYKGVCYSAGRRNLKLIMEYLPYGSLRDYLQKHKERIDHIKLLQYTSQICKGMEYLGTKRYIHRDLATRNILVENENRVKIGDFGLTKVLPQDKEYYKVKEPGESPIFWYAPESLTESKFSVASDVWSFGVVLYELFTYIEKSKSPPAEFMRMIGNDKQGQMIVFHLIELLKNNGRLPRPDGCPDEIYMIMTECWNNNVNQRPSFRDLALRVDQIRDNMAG
In the case of `COC(=O)Nc1nc2ccc(C(=O)c3cccs3)cc2[nH]1`, the inhibition is reported as 12.9% (inactive). For `C[n+]1c2cc(N)ccc2cc2ccc(N)cc21` (tested in a mixture with another compound), the inhibition was 8.06% (inactive). For `O=c1[nH]c(=O)n([C@H]2C[C@H](O)[C@@H](CO)O2)cc1F`, the inhibition was -18.6% (inactive). `CC[C@@]1(O)C(=O)OCc2c1cc1n(c2=O)Cc2c-1nc1ccccc1c2/C=N/OC(C)(C)C` was tested, and the inhibition was 12.1% (inactive). In the case of `COc1cccc2c1C(=O)c1c(O)c3c(c(O)c1C2=O)C[C@@](O)(C(C)=O)C[C@@H]3O[C@H]1C[C@H](N)[C@H](O)[C@H](C)O1`, the inhibition is reported as 7.94% (inactive). For `CC(=O)[C@]1(O)Cc2c(O)c3c(c(O)c2[C@@H](O[C@H]2C[C@H](N)[C@H](O)[C@H](C)O2)C1)C(=O)c1ccccc1C3=O`, the inhibition was 29.1% (inactive). `CN(C)c1ccc2nc3ccc(=[N+](C)C)cc-3sc2c1` was tested, and the inhibition was 13.3% (inactive). With `CCCCCCCCCCCCCCCC[n+]1ccccc1` the inhibition was 53.6%. For `CNC(=O)c1ccccc1Sc1ccc2c(/C=C/c3ccccn3)n[nH]c2c1`, the inhibition was 94.5%. With `O=C(Nc1ccc([N+](=O)[O-])cc1Cl)c1cc(Cl)ccc1O` the inhibition was 16.5% (inactive). With `CSc1ccc2c(c1)C(N1CCN(C)CC1)Cc1ccccc1S2` (stereo not drawn) the inhibition was -4.22% (inactive). `Cc1cc(O)c2ccccc2c1O` was tested, and the inhibition was 19.2% (inactive). In the case of `C[C@@]12C(=O)OC(=O)[C@]1(C)C1CCC2O1`, the inhibition is reported as -0.89% (inactive). In the case of `CCCCc1oc2ccccc2c1C(=O)c1cc(I)c(OCCN(CC)CC)c(I)c1`, the inhibition is reported as 16.2% (inactive). With `COc1cc2c(c(OC)c1OC)-c1ccc(OC)c(=O)cc1[C@@H](NC(C)=O)CC2` the inhibition was -10.4% (inactive). `CCN(CC)CCOc1ccc(/C(=C(\Cl)c2ccccc2)c2ccccc2)cc1` was tested, and the inhibition was -4.05% (inactive). `Cc1cc(C)c(/C=C2\C(=O)Nc3ccccc32)[nH]1` showed an inhibition of 68.5%. For `CC[C@]1(O)C[C@@H]2CN(CCc3c([nH]c4ccccc34)[C@@](C(=O)OC)(c3cc4c(cc3OC)N(C)[C@H]3[C@@](O)(C(=O)OC)[C@H](OC(C)=O)[C@]5(CC)C=CCN6CC[C@]43[C@@H]65)C2)C1`, the inhibition was 5.49% (inactive). In the case of `CC(C)C[C@H](NC(=O)[C@H](Cc1ccccc1)NC(=O)c1cnccn1)B(O)O`, the inhibition is reported as -3.33% (inactive). With `COc1ccc(-c2nc3ccc(C4=NNC(=O)CC4C)cc3[nH]2)cc1` (stereo not drawn) the inhibition was -0.61% (inactive). With `CNC(=O)c1cc(Oc2ccc(NC(=O)Nc3ccc(Cl)c(C(F)(F)F)c3)cc2)ccn1` the inhibition was 63.2%. For `COC(=O)Nc1nc2ccc(C(=O)C3CC3)cc2[nH]1`, the inhibition was 21.4% (inactive). In the case of `CCC(C)n1ncn(-c2ccc(N3CCN(c4ccc(OC[C@H]5CO[C@](Cn6cncn6)(c6ccc(Cl)cc6Cl)O5)cc4)CC3)cc2)c1=O` (stereo partly drawn), the inhibition is reported as 10.5% (inactive). In the case of `Cc1cc2c(C(C)C)c(O)c(O)c(C=O)c2c(O)c1-c1c(C)cc2c(C(C)C)c(O)c(O)c(C=O)c2c1O`, the inhibition is reported as -0.85% (inactive). In the case of `CCCCCCNC(=O)n1cc(F)c(=O)[nH]c1=O`, the inhibition is reported as -3.52% (inactive). `COC(=O)Nc1nc2ccc(C(=O)c3ccccc3)cc2[nH]1` was tested, and the inhibition was 25.8% (inactive). Work on `Cc1nc(Nc2ncc(C(=O)Nc3c(C)cccc3Cl)s2)cc(N2CCN(CCO)CC2)n1` yielded an inhibition of 98.4%. `COc1cc(-c2ccc(=O)[nH]n2)ccc1OC(F)F` was tested, and the inhibition was -10.1% (inactive). `CC[C@]1(O)C[C@H]2CN(CCc3c([nH]c4ccccc34)[C@@](C(=O)OC)(c3cc4c(cc3OC)N(C=O)[C@H]3[C@@](O)(C(=O)OC)[C@H](OC(C)=O)[C@]5(CC)C=CCN6CC[C@]43[C@@H]65)C2)C1` was tested, and the inhibition was 9% (inactive). `Cc1nc2ccc(CN(C)c3ccc(C(=O)N[C@@H](CCC(=O)O)C(=O)O)s3)cc2c(=O)[nH]1` was tested, and the inhibition was 14.6% (inactive). With `Nc1ccc2cc3ccc(N)cc3nc2c1` the inhibition was -6.54% (inactive). In the case of `CCCCCCCCCCCCCCCCCCNC(=O)OC1CCN(C(=O)OC[C@H](COC(=O)N(Cc2cccc[n+]2CC)C(=O)c2ccccc2OC)OC)CC1`, the inhibition is reported as -2.67% (inactive). `Oc1c(Cl)cc(Cl)cc1Sc1cc(Cl)cc(Cl)c1O` was tested, and the inhibition was -0.83% (inactive). Work on `COc1ccc(-c2ccc3cc(C(=O)O)ccc3c2)cc1C12CC3CC(CC(C3)C1)C2` yielded an inhibition of 97.7%. In the case of `CCc1nc(N)nc(N)c1-c1ccc(Cl)cc1`, the inhibition is reported as -6.66% (inactive). In the case of `O=c1[nH]c(=O)n([C@H]2C[C@H](O)[C@@H](CO)O2)cc1C(F)(F)F`, the inhibition is reported as 14.7% (inactive). With `CC(=O)Oc1ccc(C2(c3ccc(OC(C)=O)cc3)Oc3ccccc3NC2=O)cc1` the inhibition was 7% (inactive). Work on `Cc1ccc(Nc2nccc(N(C)c3ccc4c(C)n(C)nc4c3)n2)cc1S(N)(=O)=O` yielded an inhibition of 81.8%. For `Cc1ccccc1C(=O)Nc1ccc(C(=O)N2CCCC(N(C)C)c3ccccc32)cc1` (stereo not drawn), the inhibition was 16% (inactive). `COC(=O)Nc1nc2ccc(Sc3ccccc3)cc2[nH]1` was tested, and the inhibition was -7.45% (inactive). For `Cn1cnc([N+](=O)[O-])c1Sc1ncnc2nc[nH]c12`, the inhibition was -15.7% (inactive). In the case of `[O-][n+]1ccccc1SSc1cccc[n+]1[O-]`, the inhibition is reported as -17.3% (inactive). In the case of `O=c1c(-c2ccccc2)c1-c1ccccc1`, the inhibition is reported as -9.18% (inactive). In the case of `COC(=O)c1nc(Cl)c(Cl)nc1N`, the inhibition is reported as -6.75% (inactive). For `COc1cc([C@@H]2c3cc4c(cc3[C@H](O)[C@H]3COC(=O)[C@H]23)OCO4)cc(OC)c1OC`, the inhibition was 7.37% (inactive). With `Cc1ccc2nc(N)[nH]c(=O)c2c1Sc1ccncc1` the inhibition was 16.7% (inactive). `O=C(CCl)c1ccc(Cl)cc1Cl` was tested, and the inhibition was -17.1% (inactive). For `O=[N+]([O-])c1ccc(O)c2ncccc12`, the inhibition was 1.93% (inactive). For `C=CC(=O)Nc1cc2c(Nc3ccc(F)c(Cl)c3)ncnc2cc1OCCCN1CCOCC1`, the inhibition was 68.2%. `CN1CC[C@H](c2c(O)cc(O)c3c(=O)cc(-c4ccccc4Cl)oc23)[C@H](O)C1` gave an inhibition of 67.4%. For `COc1cc2nc(N3CCN(C(=O)c4ccco4)CC3)nc(N)c2cc1OC`, the inhibition was -17.8% (inactive). With `O=C(O)c1ccc(-n2nc(-c3ccccc3O)nc2-c2ccccc2O)cc1` the inhibition was 44.5% (inactive). `CCCN(CCC)C(=O)C(CCC(=O)OCCCN1CCN(CCOC(=O)Cc2c(C)n(C(=O)c3ccc(Cl)cc3)c3ccc(OC)cc23)CC1)NC(=O)c1ccccc1` (stereo not drawn) was tested, and the inhibition was 12.5% (inactive). In the case of `Cc1nc(N)nc(N)c1-c1ccc(Cl)c(Cl)c1`, the inhibition is reported as -2.13% (inactive). For `CCC1=C[C@@H]2CN(C1)Cc1c([nH]c3ccccc13)[C@@](C(=O)OC)(c1cc3c(cc1OC)N(C)[C@H]1[C@@](O)(C(=O)OC)[C@H](OC(C)=O)[C@]4(CC)C=CCN5CC[C@]31[C@@H]54)C2`, the inhibition was 1.76% (inactive). With `CCN(CC)CCNc1ccc(CO)c2sc3ccccc3c(=O)c12` the inhibition was 33.1% (inactive). `CCCCCCCCCCCCCC[N+](C)(C)C` was tested, and the inhibition was -1.09% (inactive). With `Cc1cc(C2CCCCC2)n(O)c(=O)c1` the inhibition was -9.21% (inactive). For `C=C(C)[C@H]1Cc2c(ccc3c2O[C@@H]2COc4cc(OC)c(OC)cc4[C@@H]2C3=O)O1`, the inhibition was 4.93% (inactive). In the case of `COCc1c(C(C)C)nc(C(C)C)c(/C=C/[C@@H](O)C[C@@H](O)CC(=O)O)c1-c1ccc(F)cc1`, the inhibition is reported as -8.56% (inactive). For `Oc1c(I)cc(I)c2cccnc12`, the inhibition was -10.5% (inactive). With `Cc1cc(=O)c2c(O)c3c(O)cc(=O)c4c3c3c(cc(O)c1c23)C(C)(C)C=4O` the inhibition was 32.9% (inactive). For `O=C1c2c(O)ccc(O)c2C(=O)c2c(NCCNCCO)ccc(NCCNCCO)c21`, the inhibition was 43.4% (inactive). In the case of `CC(C)(C)C(=O)OCOP(=O)(COCCn1cnc2c(N)ncnc21)OCOC(=O)C(C)(C)C`, the inhibition is reported as -9.81% (inactive). With `COC(=O)[C@H]1[C@H]2C[C@@H]3c4[nH]c5cc(OC)ccc5c4CCN3C[C@H]2C[C@@H](OC(=O)/C=C/c2ccc(O)c(OC)c2)[C@@H]1OC` the inhibition was 9.23% (inactive). `CCCSc1ccc2nc(NC(=O)OC)[nH]c2c1` was tested, and the inhibition was -0.03% (inactive). In the case of `Oc1c(Cl)cc(Cl)c2cccnc12`, the inhibition is reported as -13.9% (inactive). For `Cc1ccc([N+](=O)[O-])[c]2c1[O][Hg]2`, the inhibition was 36.9% (inactive). `CCCCC1C(=O)N(c2ccccc2)N(c2ccc(O)cc2)C1=O` (stereo not drawn) was tested, and the inhibition was -4.57% (inactive). For `COc1ccc2cc1Oc1ccc(cc1)C[C@H]1c3c(cc4c(c3Oc3cc5c(cc3OC)CCN(C)[C@@H]5C2)OCO4)CCN1C`, the inhibition was 17.9% (inactive). `CC(C)C[C@H](NC(=O)[C@H](CCc1ccccc1)NC(=O)CN1CCOCC1)C(=O)N[C@@H](Cc1ccccc1)C(=O)N[C@@H](CC(C)C)C(=O)[C@@]1(C)CO1` was tested, and the inhibition was 5.34% (inactive). In the case of `NC(=NCCCCCCN=C(N)/N=C(\N)Nc1ccc(Cl)cc1)/N=C(\N)Nc1ccc(Cl)cc1`, the inhibition is reported as 0.31% (inactive). In the case of `COc1c(C)c2c(c(O)c1C/C=C(\C)CCC(=O)OCCN1CCOCC1)C(=O)OC2`, the inhibition is reported as 8.22% (inactive). With `S=c1nc[nH]c2nc[nH]c12` the inhibition was 1.43% (inactive). In the case of `COC(=O)Nc1nc2ccc(S(=O)c3ccccc3)cc2[nH]1` (stereo not drawn), the inhibition is reported as -7.42% (inactive). For `CCCOc1ccc2nc(NC(=O)OC)[nH]c2c1`, the inhibition was -4.4% (inactive). In the case of `O=C(NOCC1CC1)c1ccc(F)c(F)c1Nc1ccc(I)cc1Cl`, the inhibition is reported as 13.2% (inactive). In the case of `CC[C@@H]([C@H](C)O)n1ncn(-c2ccc(N3CCN(c4ccc(OC[C@@H]5CO[C@@](Cn6cncn6)(c6ccc(F)cc6F)C5)cc4)CC3)cc2)c1=O`, the inhibition is reported as 10.5% (inactive). In the case of `CC(C)(C)C1CCC(CC2=C(O)c3ccccc3C(=O)C2=O)CC1` (stereo not drawn), the inhibition is reported as -11.2% (inactive). With `Nc1nc(=S)c2[nH]cnc2[nH]1` the inhibition was 10.3% (inactive). For `COc1cc(NCc2ccc3nc(N)nc(N)c3c2C)cc(OC)c1OC`, the inhibition was 26.2% (inactive). `CCN(CC)CCNC(=O)c1c(C)[nH]c(/C=C2\C(=O)Nc3ccc(F)cc32)c1C` gave an inhibition of 97.3%. For `O=C(CCCCCCC(=O)Nc1ccccc1)NO`, the inhibition was -17.1% (inactive).

From PubChem BioAssay AID1117354 (Cheminformatics & Chemogenomics Research Group (CCRG), …, 2015)
